# According to patent US20250073189A1, “NATURAL DIETARY SUPPLEMENT FOR MENTAL HEALTH” (Mind Pop LLC, priority 2023, published 2025):
# What was measured:
# [1] = Inventors' unspecified tests and research on single ingredients of the supplement; type: in vivo
# Description: Caffeine is far and away the most widely known compound in the composition, however, the present invention uses the caffeine as a clean source of energy to go along with methylliberine and theacrine.
# [2] = Inventors' dose testing of theacrine (50-400 mg); type: in vivo; conditions: according to research and trials; unlike caffeine
# Protocol: Theacrine advances the beneficial effects of the compounds of this invention in unexpected ways. […] Throughout the studies pertaining to this invention, it has been discovered that low blood pressure is paramount for the proper firing of synapses and proper chemical balance in the brain. Testing in doses from 50-400 mg of theacrine have narrowed the optimum range to 125-150 mg, and more particularly about 140 mg. […] This is made possible by the waste removal from phosphatidylserine and enhanced by alpha-glycerylphosphorylcholine which spreads these effects beyond the brain, throughout the entire body.
molecule,measurement,setting,value
"Cn1c(=O)c2c(ncn2C)n(C)c1=O [Caffeine, reference compound]",cognitive effects,[1]; 70 mg of caffeine,tremendous cognitive effects
COc1nc2c(c(=O)n1C)n(C)c(=O)n2C [Methylliberine],energy boost in combination with the other ingredients,"[1]; at precisely 140 mg, with caffeine and theacrine",unexpected energy boost
Cn1c(=O)c2c(n(C)c1=O)n(C)c(=O)n2C [Theacrine],effect on blood pressure,[2],does not seem to significantly affect blood pressure
"C[N+](C)(C)CCOP(=O)([O-])OC[C@H](O)CO [alpha-glycerylphosphorylcholine, Alpha-glycerylphosphorylcholine]",effect on muscular output and reaction times,[1]; many tests and much research,increase muscular output and reaction times
Phosphatidylserine,"effectiveness as supplementary ingredient (membrane functions, nutrient entry, cortisol modulation, waste exit)",[1]; in vivo,unexpectedly effective
